Species: Rattus norvegicus
Assay: DrugMatrix - Regimen: Daily Repeat
Type: toxicity, organism-based, Sprague-Dawley
Set-up: regimen Daily Repeat, gender Male, age 6-8 weeks
Settings: in vivo, po, route oral GAVAGE, […]; for ABSOLUTE BASOPHIL / ABSOLUTE EOSINOPHIL / ABSOLUTE LYMPHOCYTE / ABSOLUTE MONOCYTE / ABSOLUTE SEGMENTED NEUTROPHIL / BASOPHIL / EOSINOPHIL / ERYTHROCYTE COUNT / HEMATOCRIT / HEMOGLOBIN / LEUKOCYTE COUNT / LYMPHOCYTE / MEAN CORPUSCULAR HEMOGLOBIN / MEAN CORPUSCULAR HEMOGLOBIN CONCENTRATION / MEAN CORPUSCULAR VOLUME / MONOCYTE / NEUTROPHIL / NUCLEATED RED BLOOD CELLS / PLATELET COUNT: tissue Blood; for ALANINE AMINOTRANSFERASE / ALBUMIN / ALKALINE PHOSPHATASE / ASPARTATE AMINOTRANSFERASE / BLOOD UREA NITROGEN / CARBON DIOXIDE / CHLORIDE / CHOLESTEROL / CREATINE PHOSPHOKINASE / CREATININE / GLUCOSE / LACTATE DEHYDROGENASE / LIPASE / PHOSPHORUS / POTASSIUM / SODIUM / TOTAL BILIRUBIN / TOTAL PROTEIN / URIC ACID: tissue Plasma
[1] = 0 mg/kg, 72 h, dose level Control, time 3 day
[2] = 0 mg/kg, 120 h, dose level Control, time 5 day
[3] = 3 mg/kg, 72 h, dose level Low, time 3 day

Question: Which results are given for `CS(=O)(=O)c1ccc(C2=C(c3ccccc3)C(=O)OC2)cc1` [ROFECOXIB]?
Answer: ABSOLUTE BASOPHIL [1]: 0 CELLS/uL; ABSOLUTE EOSINOPHIL [1]: 0 CELLS/uL; ABSOLUTE LYMPHOCYTE [1]: 6275.67 CELLS/uL; ABSOLUTE MONOCYTE [1]: 40.67 CELLS/uL; ABSOLUTE SEGMENTED NEUTROPHIL [1]: 633.67 CELLS/uL; BASOPHIL [1]: 0%; EOSINOPHIL [1]: 0%; ERYTHROCYTE COUNT [1]: 5.2 x10E6/uL; HEMATOCRIT [1]: 32.78%; HEMOGLOBIN [1]: 12.98 G/DL; LEUKOCYTE COUNT [1]: 6.95 x10E3/uL; LYMPHOCYTE [1]: 90.17%; MEAN CORPUSCULAR HEMOGLOBIN [1]: 24.97 pg; MEAN CORPUSCULAR HEMOGLOBIN CONCENTRATION [1]: 39.62 G/DL; MEAN CORPUSCULAR VOLUME [1]: 63.03 fL; MONOCYTE [1]: 0.67%; NEUTROPHIL [1]: 9.17%; NUCLEATED RED BLOOD CELLS [1]: 0 /100WBC; PLATELET COUNT [1]: 1082.83 x10E3/uL; ALANINE AMINOTRANSFERASE [1]: 69.67 u/L; ALBUMIN [1]: 4.15 G/DL; ALKALINE PHOSPHATASE [1]: 430.5 u/L; ASPARTATE AMINOTRANSFERASE [1]: 90.83 u/L; BLOOD UREA NITROGEN [1]: 13 mg/dL; CARBON DIOXIDE [1]: 33 mmol/L; CHLORIDE [1]: 99.17 MEQ/L; CHOLESTEROL [1]: 70.5 mg/dL; CREATINE PHOSPHOKINASE [1]: 253.33 u/L; CREATININE [1]: 0.13 mg/dL; GLUCOSE [1]: 157.17 mg/dL; LACTATE DEHYDROGENASE [1]: 85 u/L; LIPASE [1]: 10 u/L; PHOSPHORUS [1]: 10.2 mg/dL; POTASSIUM [1]: 5.78 MEQ/L; SODIUM [1]: 144.12 MEQ/L; TOTAL BILIRUBIN [1]: 0.2 mg/dL; TOTAL PROTEIN [1]: 5.8 G/DL; URIC ACID [1]: 0.8 mg/dL; ABSOLUTE BASOPHIL [2]: 0 CELLS/uL; ABSOLUTE EOSINOPHIL [2]: 0 CELLS/uL; ABSOLUTE LYMPHOCYTE [2]: 10431 CELLS/uL; ABSOLUTE MONOCYTE [2]: 90.5 CELLS/uL; ABSOLUTE SEGMENTED NEUTROPHIL [2]: 1111.83 CELLS/uL; BASOPHIL [2]: 0%; EOSINOPHIL [2]: 0%; ERYTHROCYTE COUNT [2]: 5.51 x10E6/uL; HEMATOCRIT [2]: 34.67%; HEMOGLOBIN [2]: 13.5 G/DL; LEUKOCYTE COUNT [2]: 11.63 x10E3/uL; LYMPHOCYTE [2]: 89.67%; MEAN CORPUSCULAR HEMOGLOBIN [2]: 24.5 pg; MEAN CORPUSCULAR HEMOGLOBIN CONCENTRATION [2]: 38.95 G/DL; MEAN CORPUSCULAR VOLUME [2]: 62.87 fL; MONOCYTE [2]: 0.67%; NEUTROPHIL [2]: 9.67%; NUCLEATED RED BLOOD CELLS [2]: 0 /100WBC; PLATELET COUNT [2]: 1052.67 x10E3/uL; ALANINE AMINOTRANSFERASE [2]: 54.67 u/L; ALBUMIN [2]: 4.15 G/DL; ALKALINE PHOSPHATASE [2]: 359.83 u/L; ASPARTATE AMINOTRANSFERASE [2]: 83 u/L; BLOOD UREA NITROGEN [2]: 13.5 mg/dL; CARBON DIOXIDE [2]: 27.17 mmol/L; CHLORIDE [2]: 98.5 MEQ/L; CHOLESTEROL [2]: 66.83 mg/dL; CREATINE PHOSPHOKINASE [2]: 256.17 u/L; CREATININE [2]: 0.19 mg/dL; GLUCOSE [2]: 171.33 mg/dL; LACTATE DEHYDROGENASE [2]: 91.5 u/L; LIPASE [2]: 10.5 u/L; PHOSPHORUS [2]: 8.72 mg/dL; POTASSIUM [2]: 5.34 MEQ/L; SODIUM [2]: 142.53 MEQ/L; TOTAL BILIRUBIN [2]: 0.2 mg/dL; TOTAL PROTEIN [2]: 6.05 G/DL; URIC ACID [2]: 0.6 mg/dL; ABSOLUTE BASOPHIL [3]: 0 CELLS/uL; ABSOLUTE EOSINOPHIL [3]: 85.33 CELLS/uL; ABSOLUTE LYMPHOCYTE [3]: 8896 CELLS/uL; ABSOLUTE MONOCYTE [3]: 157.33 CELLS/uL; ABSOLUTE SEGMENTED NEUTROPHIL [3]: 594.67 CELLS/uL; BASOPHIL [3]: 0%; EOSINOPHIL [3]: 0.67%; ERYTHROCYTE COUNT [3]: 4.87 x10E6/uL; HEMATOCRIT [3]: 31.33%; HEMOGLOBIN [3]: 12.37 G/DL; LEUKOCYTE COUNT [3]: 9.73 x10E3/uL; LYMPHOCYTE [3]: 92%; MEAN CORPUSCULAR HEMOGLOBIN [3]: 25.37 pg; MEAN CORPUSCULAR HEMOGLOBIN CONCENTRATION [3]: 39.47 G/DL; MEAN CORPUSCULAR VOLUME [3]: 64.27 fL; MONOCYTE [3]: 1.33%; NEUTROPHIL [3]: 6%; NUCLEATED RED BLOOD CELLS [3]: 0 /100WBC; PLATELET COUNT [3]: 1073 x10E3/uL; ALANINE AMINOTRANSFERASE [3]: 72.67 u/L; ALBUMIN [3]: 3.97 G/DL; ALKALINE PHOSPHATASE [3]: 379.67 u/L; ASPARTATE AMINOTRANSFERASE [3]: 91.33 u/L; BLOOD UREA NITROGEN [3]: 11.33 mg/dL; CARBON DIOXIDE [3]: 30.33 mmol/L; CHLORIDE [3]: 103.33 MEQ/L; CHOLESTEROL [3]: 80.33 mg/dL; CREATINE PHOSPHOKINASE [3]: 195.67 u/L; CREATININE [3]: 0.12 mg/dL; GLUCOSE [3]: 156 mg/dL; LACTATE DEHYDROGENASE [3]: 80 u/L; LIPASE [3]: 9.67 u/L; PHOSPHORUS [3]: 11.1 mg/dL; POTASSIUM [3]: 6.21 MEQ/L; SODIUM [3]: 149.03 MEQ/L; TOTAL BILIRUBIN [3]: 0.1 mg/dL; TOTAL PROTEIN [3]: 5.43 G/DL; URIC ACID [3]: 0.7 mg/dL

Reference: ChEMBL document CHEMBL3885881, “DrugMatrix”
